Assay results: patent publication US11389411B2, “Pharmaceutical composition, containing NM23 activator, for inhibiting cancer metastasis” (EWHA UNIVERSITY—INDUSTRY COLLABORATION FOUNDATION, priority 2017, dated 2022)
Like-named read-outs stand apart in the source and are kept apart here. Values belong to the compound of their own block, whether it stands above or below them.

Key:
Nm23-H1 [1] = molecular target: T1, Nm23-H1 (Homo sapiens, UniProt P15531); experiment: NDPK assay with recombinant Nm23-H1; assay type: biochemical; details: for Relative NDPK activity (±S.D): relative to a DMSO-treated group (DMSO = 1)
T1 sequence (P15531 whole entry): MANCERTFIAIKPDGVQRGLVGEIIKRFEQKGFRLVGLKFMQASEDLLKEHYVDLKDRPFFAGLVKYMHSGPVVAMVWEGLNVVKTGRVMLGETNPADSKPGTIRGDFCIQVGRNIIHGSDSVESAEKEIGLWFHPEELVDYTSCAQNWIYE
Experimental: (§1) 5 ng of recombinant Nm23-H1 was incubated with 5 μM ADP and a test substance (the compound of Formula 2-1, 3-1 or 4-1) in NDPK assay buffer (20 mM HEPES, 3 mM MgCl2) at mom temperature for 1 minute, and cell-based NDPK assay was performed. A cell lysate obtained from 5,000K MDA-MB-231 cells lysed with a protease inhibitor cocktail and an NDPK assay buffer was centrifuged at 8,000 rpm for 10 minutes at 4° C. 40 μL of the lysate was incubated with the test substance for 5 minutes, and then 50 μM UDP was added thereto and reacted with NDPK. ATP consumption was assessed by an ATP determination kit (Molecular probe, USA).

Nm23-H2 = Nm23-H2 (Homo sapiens, UniProt P22392); experiment: NDPK activity assay on Nm23-H2; assay type: biochemical; details: FIG. 3D
Sequence of Nm23-H2 (P22392 whole entry): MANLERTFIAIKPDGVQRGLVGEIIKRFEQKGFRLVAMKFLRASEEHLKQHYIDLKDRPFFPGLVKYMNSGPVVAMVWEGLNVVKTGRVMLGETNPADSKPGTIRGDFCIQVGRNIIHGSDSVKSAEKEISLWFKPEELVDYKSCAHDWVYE

A549 cells = experiment: Transwell migration and matrigel invasion of A549 cells; assay type: cell-based; details: FIG. 7B
Experimental: (§2) When cells reached a confluence of 70%, the cells were treated with the compound of Formula 2-1 for 16 hours. 1×10^5 cells were suspended in PBS-free medium and added onto a Boyden chamber membrane. 10% PBS-containing culture was added to the bottom of the membrane. The chamber was incubated at 37° C. under 5% CO2 for 4 hours. The migrated cells were fixed and stained with crystal violet/methanol. The cells were photographed, and the migrated cells were counted and normalized to control cells.

MDA-MB-231 cells [2] = experiment: Cell-based NDPK assay (MDA-MB-231 cell lysate); details: FIG. 3C, MDA-MB-231 lysate, concentration dependence
Experimental: as §1

Rac1 = Rac1 activity assay (active Rac1 pulldown); assay type: cell-based
Experimental: MDA-MB-231 cells were grown in a 100 mm dish and treated with the compound of Formula 2-1 or 0.05% DMSO at an indicated concentration for 16 hours. Active Rac1 pulldown assays were performed according to the manufacturer's instructions (Termo Fisher Scientifc).

MDA-MB-231 luc cells = experiment: Breast cancer metastasis model (MDA-MB-231 luc cells in mammary fat pad); assay type: in vivo, nude mice
From the text: In order to confirm the metastasis suppressing activity of the compound of Formula 2-1 according to the present disclosure in an actual animal model, MDA-MB-231 luc cells were applied to a breast cancer metastasis model.

MDA-MB-231 cells [3] = experiment: Immunofluorescence analysis (F-actin, confocal microscopy); assay type: cell-based; details: FIG. 6A
Experimental: MDA-MB-231 cells were grown on the Secureslip™ (Sigma) cell culture glass cover slip to a confluence of 50 to 70%, and incubated in the presence or absence of the compound of Formula 2-1 for various periods of time. The cells were gently washed with cold HBSS, and then fixed with 4% paraformaldehyde-containing HBSS in RBS for 10 minutes. After washing with HBSS, permeabilization with 0.1% Triton X-100 was performed for 10 minutes at mom temperature. After washing twice with HBSS, the cells were blocked with HBSS containing 3% BSA, 0.2% Tween 20 and 0.2% gelatin at room temperature for 1 hour, and incubated with primary antibody at mom temperature for 1 hour. Then, the cells were incubated with fluorochrome-conjugated species-specific secondary antibodies for 1 hour.
All the antibodies were diluted with 1% BSA-containing HBSS. Coverslips were mounted with anti-fading solution, and viewed using a ×63 objective lens of an LSM510 META (Zeiss) laser scanning confocal microscope.

MDA-MB-231 cells [4] = experiment: Invasion assay and transwell migration assay in MDA-MB-231 cells; assay type: cell-based
Experimental: as §2

Nm23-H1 [5] = molecular target: T1, Nm23-H1; experiment: Isothermal titration calorimetry; assay type: binding; details: FIG. 4, with and without ATP
Experimental: An ITC experiment was performed using the ITC200 system (Malvern Inc.), and the data were analyzed using ORIGIN 7.0 program. The concentration of Nm23-H1 protein in the cells was 30 μM, and the syringe contained 300 μM of the activator or 1 mM ATP. The activator was prepared at a concentration of 50 mM in DMSO (dimethyl sulfoxide) and stored at −20° C. ITC buffer contained (pH 7.5) 150 mM NaCl, 3 mM MgCl2 and 20 mM HEPES in up to 2% DMSO. For titration, each 2 μL was injected 20 times 25° C. at intervals of 150 seconds. No evidence of DMSO binding at the nucleotide binding site was observed. The experimental raw data were corrected by subtracting the value for the buffer, and then fitted to a single site binding model. The titration data were fitted using a nonlinear least squares curve-fitting algorithm with three floating variables: stoichiometry (N), dissociation constant (KD), and change of enthalpy of interaction.

Nm23-H1 [6] = molecular target: T1, Nm23-H1; experiment: Surface plasmon resonance analysis of interaction with immobilized Nm23-H1; assay type: binding; details: SPR, 25° C.; for Kd: calculated Kd/Ka; for kon: read-out: Ka
Experimental: The interaction between the compound of Formula 2-1 and Nm23-H1 was analyzed using a surface plasmon resonance instrument (SR7500 DC, Reichert Inc., NY) at 25° C.
Nm23-H1 (1 mg/ml) in 10 mM S.A buffer (pH 4.5) was immobilized using the standard amino coupling at 20 μL/min for 10 minutes on a carboxymethyl dextran hydrogel (CMDH) surface sensor chip (Reichert Technologies, NY) until saturation was achieved.
Different concentrations of the compound of Formula 2-1 (10-160 μM) in binding buffer (10 mM HEPES, pH 7.4, 100 mM NaCl, 1 mM MgCl2, and with or without 2 mM ATP) were allowed to flow over the immobilized Nm23-H1 (approximately 8200 RU) at a rate of 30 μL/min.
The sensor surface was regenerated after each association and dissociation cycle by injecting 2M NaCl for 1 min. Sensorgrams were fitted to a simple 1:1 Langmuir interaction model (A+B⇄AB) using data analysis program Scrubber 2.0 (BioLogic Sofware, Australia, and Kaleida Graph Sofware, Australia).
KD is a value obtained by calculating Kd/Ka.

[7] = FIG. 7A, MDA-MB-231 cells, different concentrations

Relative NDPK activity (±S.D) (Nm23-H1 [1]): 4.11 (±0.16)
SMILES: COc1ccc(/C=C/c2ccccc2-c2ccc(OC)c(OC)c2)cc1OC [Formula 3-1]

Relative NDPK activity (±S.D) (Nm23-H1 [1]): 2.41 (±0.29)
SMILES: COc1ccc(/C=C/[C@H]2CCCCC2c2ccc(OC)c(OC)c2)cc1OC (some centres unmarked) [Formula 4-1]

NDPK activity on Nm23-H2 (Nm23-H2): showed the same activity | NDPK activity of Nm23-H1 (Nm23-H1 [1]; FIG. 3A, concentration dependence): increased depending on the concentration | Relative NDPK activity (±S.D) (Nm23-H1 [1]): 4.04 (±0.13) | Kd (Nm23-H1 [6]; 2 nM ATP): 1.49 ± 0.03 µM | kon (Nm23-H1 [6]; 2 nM ATP): 71 ± 1 M⁻¹ s⁻¹ | Kd (Nm23-H1 [6]; without ATP): 17.9 ± 0.2 µM | kon (Nm23-H1 [6]; without ATP): 78 ± 1 M⁻¹ s⁻¹
SMILES: COc1ccc(/C=C/[C@H]2CCC=C[C@@H]2c2ccc(OC)c(OC)c2)cc1OC [Formula 2-1]
matrigel invasion (A549 cells): reduced | transwell migration (A549 cells): reduced | V0, Km of the enzyme (NDPK activity depending on the concentration of UDP) (Nm23-H1 [1]; FIG. 3B): Km-type activity similar to that of a conventional enzyme activator | cell-based NDPK activity (MDA-MB-231 cells [2]): increased depending on the concentration | activity of Rac1 (Rac1; FIG. 6B, MDA-MB-231 cells, 16 hours): reduced the activity of Rac1 in a concentration-dependent manner | effect on Rac1 activity after knockdown of Nm23-H1 (Rac1; FIGS. 6C and 6D): abolished by knockdown of Nm23-H1 | metastasis of the cells to the lung (MDA-MB-231 luc cells; FIG. 8, 10 mg/kg daily, 4 weeks): decreased | volume of the tumor (MDA-MB-231 luc cells; FIG. 9, 10 mg/kg daily): decreased | cells that metastasized to the lung (MDA-MB-231 luc cells; FIG. 10, 10 mg/kg daily): statistically significantly decreased | change of F-actin / cell morphology (MDA-MB-231 cells [3]): ruffles decreased and intercellular contact increased | matrigel invasion (MDA-MB-231 cells [4]; [7]): reduced | transwell migration (MDA-MB-231 cells [4]; [7]): reduced | effect on migration/invasion after knockdown of Nm23-H1 and Nm23-H2 (MDA-MB-231 cells [4]; FIG. 7C): reduced by knockdown of Nm23-H1 and Nm23-H2 | direct interaction with Nm23-H1 (ITC) (Nm23-H1 [5]): occurred and was further enhanced in the presence of ATP
